# Source: PubChem BioAssay AID1259407 (Chemical Carcinogenesis Research Information System (CCRIS), 2018)
# The source made the active and inactive calls. The rule behind the calls is not given here.
# Tested on: CCRIS mutagenicity, Ames/micronucleus/aberration tests
# Assay: CCRIS mutagenicity studies
# [1] = Test System: AMES SALMONELLA TYPHIMURIUM, Strain/Indicator: TA100, Metabolic Activation: NONE, Method: STANDARD PLATE
structure (smiles),measurement,setting,value
COP(=S)(OC)Oc1ccc([N+](=O)[O-])c(C)c1,mutagenic call,"End Point: IN VIVO MICRONUCLEUS, Test System: BONE MARROW POLYCHROMATIC ERYTHROCYTES, Species: MOUSE, Strain/Sex: DDY/MALE, Route: IP",inactive; negative
same,mutagenic call,"Test System: AMES SALMONELLA TYPHIMURIUM, Strain/Indicator: TA98, Metabolic Activation: NONE, Method: PREINCUBATION",inactive; negative
same,mutagenic call,"Test System: AMES SALMONELLA TYPHIMURIUM, Strain/Indicator: TA98, Metabolic Activation: NONE, Method: STANDARD PLATE",inactive; negative
same,mutagenic call,"Test System: AMES SALMONELLA TYPHIMURIUM, Strain/Indicator: TA98, Metabolic Activation: RAT LIVER S-9 (10%), Method: PREINCUBATION",inactive; negative
same,mutagenic call,"Test System: AMES SALMONELLA TYPHIMURIUM, Strain/Indicator: TA98, Metabolic Activation: RAT, LIVER, S-9, AROCLOR 1254, Method: STANDARD PLATE",inactive; negative
same,mutagenic call,"Test System: AMES SALMONELLA TYPHIMURIUM, Strain/Indicator: TA98, Metabolic Activation: S-9, NADPH GENERATING SYSTEM, Method: STANDARD PLATE",inactive; negative
same,mutagenic call,"Test System: AMES SALMONELLA TYPHIMURIUM, Strain/Indicator: TA100, Metabolic Activation: NONE, Method: PREINCUBATION",inactive; negative
same,mutagenic call,[1],inactive; negative
same,mutagenic call,"Test System: AMES SALMONELLA TYPHIMURIUM, Strain/Indicator: TA100, Metabolic Activation: RAT LIVER S-9 (10%), Method: PREINCUBATION",inactive; negative
same,mutagenic call,"Test System: AMES SALMONELLA TYPHIMURIUM, Strain/Indicator: TA100, Metabolic Activation: RAT, LIVER, S-9, AROCLOR 1254, Method: STANDARD PLATE",inactive; negative
same,mutagenic call,"Test System: AMES SALMONELLA TYPHIMURIUM, Strain/Indicator: TA100, Metabolic Activation: S-9 MIX, Method: STANDARD PLATE",active; positive
same,mutagenic call,"Test System: AMES SALMONELLA TYPHIMURIUM, Strain/Indicator: TA102, Metabolic Activation: NONE, Method: STANDARD PLATE",inactive; negative
same,mutagenic call,"Test System: AMES SALMONELLA TYPHIMURIUM, Strain/Indicator: TA102, Metabolic Activation: S-9, NADPH GENERATING SYSTEM, Method: STANDARD PLATE",inactive; negative
same,mutagenic call,"Test System: AMES SALMONELLA TYPHIMURIUM, Strain/Indicator: TA1535, Metabolic Activation: NONE, Method: STANDARD PLATE",inactive; negative
same,mutagenic call,"Test System: AMES SALMONELLA TYPHIMURIUM, Strain/Indicator: TA1535, Metabolic Activation: S-9, NADPH GENERATING SYSTEM, Method: STANDARD PLATE",inactive; negative
same,mutagenic call,"Test System: AMES SALMONELLA TYPHIMURIUM, Strain/Indicator: TA1537, Metabolic Activation: NONE, Method: STANDARD PLATE",inactive; negative
same,mutagenic call,"Test System: AMES SALMONELLA TYPHIMURIUM, Strain/Indicator: TA1537, Metabolic Activation: S-9, NADPH GENERATING SYSTEM, Method: STANDARD PLATE",inactive; negative
same,mutagenic call,"Test System: AMES SALMONELLA TYPHIMURIUM, Strain/Indicator: YG1021, Metabolic Activation: NONE, Method: PREINCUBATION",inactive; negative
same,mutagenic call,"Test System: AMES SALMONELLA TYPHIMURIUM, Strain/Indicator: YG1021, Metabolic Activation: RAT LIVER S-9 (10%), Method: PREINCUBATION",inactive; negative
same,mutagenic call,"Test System: AMES SALMONELLA TYPHIMURIUM, Strain/Indicator: YG1024, Metabolic Activation: NONE, Method: PREINCUBATION",inactive; negative
same,mutagenic call,"Test System: AMES SALMONELLA TYPHIMURIUM, Strain/Indicator: YG1024, Metabolic Activation: RAT LIVER S-9 (10%), Method: PREINCUBATION",inactive; negative
same,mutagenic call,"Test System: AMES SALMONELLA TYPHIMURIUM, Strain/Indicator: YG1026, Metabolic Activation: NONE, Method: PREINCUBATION",active; positive
same,mutagenic call,"Test System: AMES SALMONELLA TYPHIMURIUM, Strain/Indicator: YG1026, Metabolic Activation: RAT LIVER S-9 (10%), Method: PREINCUBATION",active; positive
same,mutagenic call,"Test System: AMES SALMONELLA TYPHIMURIUM, Strain/Indicator: YG1029, Metabolic Activation: NONE, Method: PREINCUBATION",active; positive
same,mutagenic call,"Test System: AMES SALMONELLA TYPHIMURIUM, Strain/Indicator: YG1029, Metabolic Activation: RAT LIVER S-9 (10%), Method: PREINCUBATION",active; positive
same,mutagenic call,"Test System: AMES SALMONELLA TYPHIMURIUM, Strain/Indicator: YG1041, Metabolic Activation: NONE, Method: PREINCUBATION",active; positive
same,mutagenic call,"Test System: AMES SALMONELLA TYPHIMURIUM, Strain/Indicator: YG1041, Metabolic Activation: RAT LIVER S-9 (10%), Method: PREINCUBATION",active; positive
same,mutagenic call,"Test System: AMES SALMONELLA TYPHIMURIUM, Strain/Indicator: YG1042, Metabolic Activation: NONE, Method: PREINCUBATION",active; positive
same,mutagenic call,"Test System: AMES SALMONELLA TYPHIMURIUM, Strain/Indicator: YG1042, Metabolic Activation: RAT LIVER S-9 (10%), Method: PREINCUBATION",active; positive
CCC(O)/C=C/C=O (stereo not given),mutagenic call,"End Point: IN VITRO CHROMOSOMAL ABERRATIONS, Test System: RAT HEPATOCYTES, Metabolic Activation: NONE",active; positive
same,mutagenic call,"End Point: IN VITRO MICRONUCLEUS, Test System: RAT HEPATOCYTES, Metabolic Activation: NONE",active; positive
C=CC(O)CO (stereo not given),mutagenic call,"Test System: Mouse splenic T lymphocytes in vivo, Strain/Indicator: B6C3F1 females (HPRT)/6-Thioguanine, Metabolic Activation: None, Method: Inhalation at 0, 6, 18, 36 ppm 6 hr/day for 4 wks (sacrifice 2-8 wks post exposure)",active; positive (especially at 5.5-6 wk after last exposure)
same,mutagenic call,"Test System: Mouse splenic T lymphocytes in vivo, Strain/Indicator: B6C3F1 males (HPRT)/6-Thioguanine, Metabolic Activation: None, Method: Inhalation at 0, 6, 18, 36 ppm 6 hr/day for 4 wks (sacrifice 2-8 wks post exposure)",active; positive (especially at 5.5-6 wk after last exposure)
same,mutagenic call,"Test System: Rat splenic T lymphocytes in vivo, Strain/Indicator: F344 females (HPRT)/6-Thioguanine, Metabolic Activation: None, Method: Inhalation at 0, 36 ppm 6 hr/day for 4 wks (sacrifice 2-8 wks post exposure)",active; positive (at 5-6 wks)
CCCCCOC(=O)NO,mutagenic call,"Test System: E. COLI, Strain/Indicator: WP2 UVRA, Metabolic Activation: NONE, Method: FLUCTUATION TEST",active; positive
O=C(O)CCCl,mutagenic call,"Test System: Ames Salmonella typhimurium, Strain/Indicator: TA98, Metabolic Activation: None, Method: Preincubation",inactive; negative
same,mutagenic call,"Test System: Ames Salmonella typhimurium, Strain/Indicator: TA98, Metabolic Activation: Rat, Liver, S9, Sodium phenobarbital and 5,6-benzoflavone (10%), Method: Preincubation",inactive; negative
same,mutagenic call,"Test System: Ames Salmonella typhimurium, Strain/Indicator: TA100, Metabolic Activation: None, Method: Preincubation",active; positive
same,mutagenic call,"Test System: Ames Salmonella typhimurium, Strain/Indicator: TA100, Metabolic Activation: Rat, Liver, S9, Sodium phenobarbital and 5,6-benzoflavone (10%), Method: Preincubation",active; positive
same,mutagenic call,"Test System: Ames Salmonella typhimurium, Strain/Indicator: TA1535, Metabolic Activation: None, Method: Preincubation",active; positive
same,mutagenic call,"Test System: Ames Salmonella typhimurium, Strain/Indicator: TA1535, Metabolic Activation: Rat, Liver, S9, Sodium phenobarbital and 5,6-benzoflavone (10%), Method: Preincubation",active; positive
same,mutagenic call,"Test System: Ames Salmonella typhimurium, Strain/Indicator: TA1537, Metabolic Activation: Rat, Liver, S9, Sodium phenobarbital and 5,6-benzoflavone (10%), Method: Preincubation",inactive; negative
same,mutagenic call,"Test System: E. coli, Strain/Indicator: WP2uvrA/pKM101, Metabolic Activation: None, Method: Preincubation",active; positive
same,mutagenic call,"Test System: E. coli, Strain/Indicator: WP2uvrA/pKM101, Metabolic Activation: Rat, Liver, S9, Sodium phenobarbital and 5,6-benzoflavone (10%), Method: Preincubation",active; positive
c1cc2c3c(c1)C1NC1c1cccc(c1-3)C1NC21 (stereo not given),mutagenic call,[1],active; positive
